Laboratory results reported in patent US20250194597A1, “METHOD FOR INCREASING FLAVONOID CONTENT IN PLANT THROUGH TREATMENT WITH LOW-MOLECULAR-WEIGHT SULFUR COMPOUND” (REPUBLIC OF KOREA (RURAL DEVELOPMENT ADMINISTRATION), priority 2022, published 2025).

Experiments:
Assay type in all cases: in vivo
[1] = system: Chinese cabbage cultivar Whimori; assay: Flavonoid content of leaves by HPLC after aglyconization, cultivar Whimori
Protocol: (§1) 3-(3-Thienyl) acrylic acid (hereinafter referred to as S17) and 3-(2-Thienyl) acrylic acid (hereinafter referred to as 3-(2-S)) dissolved in DMSO at a concentration of 50 μM or 200 μM, respectively, were prepared, and seeds of commercial Chinese cabbage cultivars 5923 and Hwimori were sterilized and then germinated on ½ MS solid medium to prepare 4-day seedlings showing consistent growth.
(§2) The leaves of the cultivars 5923 and Whimori prepared in Example 1-1 were collected and crushed, and then extracted with 50% methanol containing 2N HCl at 95° C. for 2 hours, and flavonoid substances present in the form of glycosides in the plants were aglyconized and analyzed by HPLC. After the substances were separated through HPLC using a C18 column, peaks were detected at 350 nm and 520 nm, and flavonoids and anthocyanin non-glycosides in the extract were identified by comparing the retention time and UV spectrum of flavonol non-glycoside standards such as kaempferol, quercetin, myricetin and isorhamnetin, and anthocyanin non-glycoside standards such as pelargonidin, cyanidin and delphinidin, respectively, and the content of the identified flavonoid and anthocyanin substances was estimated based on the concentration of the standards and the area of the peak. As a control group, the cultivar 5923 or Whimori that was not treated with sulfur compounds was used.

[2] = system: Chinese cabbage cultivar Whimori; assay: Anthocyanin coloration observed with the naked eye, Chinese cabbage cultivar Whimori seedlings; conditions: 50 μM or 200 μM, cultured 10 days
Protocol: as §1

[3] = system: Chinese cabbage cultivar 5923; assay: Flavonoid content of leaves by HPLC after aglyconization, cultivar 5923; conditions: for cyanidin accumulation: 200 μM alone (no sucrose); for kaempferol content: treated alone (no sucrose), 50 and 200 μM, vs control
Protocol: as §1, §2

[4] = system: rice cultivar purple rice; assay: Anthocyanin coloration of rice cultivar purple rice; conditions: for anthocyanin coloration in the hypocotyls: cultured 7 days
Protocol: To confirm whether anthocyanin coloring effects occur when not only dicotyledonous plants but also gramineous plants, which are monocotyledonous plants, are treated with S17 or 3-(2-S), seeds of the rice cultivar purple rice were sown on ½ MS medium containing each of S17 (40 μM) or 3-(2-S) (80 μM) and cultured for 7 days to observe anthocyanin coloration.

[5] = system: Chinese cabbage cultivar 5923; assay: Anthocyanin coloration observed with the naked eye, Chinese cabbage cultivar 5923 seedlings; conditions: cultured 10 days
Protocol: as §1

[6] = system: Arabidopsis thaliana; assay: Anthocyanin coloration of Arabidopsis thaliana seedlings; conditions: cultured 5 days; for anthocyanin coloration: 50 μM or 200 μM + 4% sucrose
Protocol: To confirm whether anthocyanin coloring effect occurs when Arabidopsis thaliana, which is a cruciferous plant such as Chinese cabbage, is treated with S17 or 3-(2-S), Arabidopsis thaliana was treated with S17 or 3-(2-S) alone, and each was treated with 4% sucrose. Specifically, Arabidopsis thaliana seeds were germinated on ½ MS solid medium supplemented with 1% sucrose, and then day 6 seedlings were placed on ½ MS medium supplemented with each of S17 (50 μM or 200 μM)+4% sucrose, or 3-(2-S) (50 μM or 200 μM)+4% sucrose and cultured for 5 days to observe anthocyanin coloration.

`O=C(O)/C=C/c1cccs1` [3-(2-S), 3-(2-Thienyl) acrylic acid] was tested, and the production of cyanidin ([1]; 200 μM + 4% sucrose) was “produced”, the production of isorhamnetin ([1]; 200 μM + 4% sucrose) was “produced” and the production of quercetin ([1]; 200 μM + 4% sucrose) was “produced”. For the same molecule, the kaempferol content ([1]; + 4% sucrose, concentration dependence) was “increased in a concentration-dependent manner”, the “kaempferol content compared to the control group” value ([1]; treated alone (no sucrose)) was “remarkably increased” and the “anthocyanin coloration (naked eye)” value [2] was “red coloration in Chinese cabbage in a concentration-dependent manner”. For the same molecule, the cyanidin accumulation [3] was “cyanidin was accumulated”, the kaempferol content [3] was “increased in a concentration-dependent manner” and the “anthocyanin coloration in the hypocotyls” value ([4]; 80 μM) was “anthocyanin coloration was strong”. For the same molecule, the “anthocyanin coloration (naked eye)” value ([5]; 200 μM + 4% sucrose) was “Coloration was confirmed” and the anthocyanin coloration [6] was “anthocyanin coloration occurred”.

For `O=C(O)/C=C/c1ccsc1` [S17, 3-(3-Thienyl) acrylic acid], the “kaempferol content compared to the control group” value ([1]; 50 μM and 200 μM + 4% sucrose) was “remarkably increased”, the production of cyanidin ([1]; 50 μM and 200 μM + 4% sucrose) was “produced” and the production of isorhamnetin ([1]; 50 μM and 200 μM + 4% sucrose) was “produced”. The production of quercetin ([1]; 50 μM and 200 μM + 4% sucrose) was “produced”, the “kaempferol content compared to the control group” value ([1]; treated alone (no sucrose)) was “remarkably increased” and the “anthocyanin coloration (naked eye)” value [2] was “red coloration in Chinese cabbage in a concentration-dependent manner”. For the same molecule, the “kaempferol content increase compared to the control group” value ([3]; 50 μM + 4% sucrose) was “up to 6.3 times”, the production of isorhamnetin ([3]; 50 μM + 4% sucrose) was “confirmed” and the production of quercetin ([3]; 50 μM + 4% sucrose) was “confirmed”. For the same molecule, the “cyanidin content compared to the control group” value ([3]; 200 μM + 4% sucrose) was “remarkably increased”, the cyanidin accumulation [3] was “cyanidin was accumulated” and the anthocyanin production ability ([3]; 200 μM vs 50 μM treated group, + 4% sucrose) was “remarkably enhanced”. For the same molecule, the kaempferol content [3] was “increased in a concentration-dependent manner”, the “anthocyanin coloration in the hypocotyls” value ([4]; 40 μM) was “anthocyanin coloration was strong” and the “coloration-inducing effect (anthocyanin production effect) relative to 3-(2-S)” value ([4]; S17 40 μM vs 3-(2-S) 80 μM) was “comparatively superior”. For the same molecule, the “anthocyanin coloration (naked eye)” value ([5]; 50 μM + 4% sucrose) was “coloration appeared on the back of the cotyledons and true leaves”, the “anthocyanin coloration (naked eye)” value ([5]; 200 μM + 4% sucrose) was “slightly increased coloration appeared” and the “anthocyanin coloration (naked eye)” value ([5]; 200 μM alone, no sucrose) was “coloration appeared on the back of the leaves”. The anthocyanin coloration [6] was “anthocyanin coloration occurred” and the “anthocyanin coloring compared to the 3-(2-S) treated group” value ([6]; + 4% sucrose) was “stronger coloring”.
